experiment: Inhibition of Escherichia coli FimH by competitive binding assay

SMILES | Kd
CNC(=O)c1cccc(-c2ccc(O[C@H]3O[C@H](CO)[C@@H](O)[C@H](C(O)[C@H]4O[C@H](CO)[C@@H](O)[C@H](O)[C@@H]4O)[C@@H]3O)cc2)c1 (stereo partly drawn) | 29 nM
O=C1NCC(c2ccc(O[C@H]3O[C@H](CO)[C@@H](O)[C@H](C[C@H]4O[C@H](CO)[C@@H](O)[C@H](O)[C@@H]4O)[C@@H]3O)cc2)=C(O)N1 | 111 nM
CNC(=O)c1ccc(-c2ccc(C)c(O[C@H]3O[C@H](CO)[C@@H](O)[C@H](C[C@H]4O[C@H](CO)[C@@H](O)[C@H](O)[C@@H]4O)[C@@H]3O)c2)cc1 | 19 nM

Source: ChEMBL document CHEMBL3351953, “Inhibition of the Bacterial Adhesin FimH May Potentially Treat Inflammatory Bowel Diseases (IBD)” (ACS Med Chem Lett, 2014)
